The values that follow come from patent US10538535B2, “Antitumoral compounds” (priority 2017, dated 2020).

Data set [1] can be described thus: MTD (Maximum Tolerated Dose) determination, single iv administration. Format: in vivo. The note with it: mice, iv/SD; for MTD at 14 days: female, mouse, in vivo. The text has this: (§1) Female CD-1 or Athymic Nude-Fox1 nu/nu mice (Envigo) were utilized for all experiments. […] Animals were acclimated for five days prior to being individually tattoo-identified. Animal protocols were reviewed and approved according to the regional Institutional Animal Care and Use Committees.
(§2) Mice were randomly allocated into experimental groups and intravenously administered, once for the MTD (Maximum Tolerated Dose) determination or one administration a week during three consecutive weeks, for the MTMD (Maximum Tolerated Multiple Dose) determination study. The animals were administered with white formulation or with compound dissolved in the experimental formulation at different concentrations. The volume administered was always 10 mL/kg. Once administered, animals were monitored for clinical signs of systemic toxicity, changes in body weight and mortality up to 14 days after the administration.

Data set [2] in a line: MTMD (Maximum Tolerated Multiple Dose) determination, iv weekly x3. Format: in vivo. The note with it: mice; iv/Q7dx3.
Description: as §1, §2

Data set [3] relates to HT1080 tumors. As to the kind of experiment: In vivo xenograft, human fibrosarcoma HT1080. The note with it: HT1080; Day 28; iv Days 0, 7, 14; 4-R 0.30 mg/kg. (In xenograft studies the graft and the host belong to different species.)
Description: Female athymic nu/nu mice (Harlan Laboratories Models, S. L. Barcelona, Spain or Envigo, Spain) were utilized for all experiments. Animal were housed in individually ventilated cages Sealsafe® Plus, Techniplast S.P.A.), up to ten per cage on a 12-hour light-dark cycle at 21-23° C. and 40-60% humidity. […] Animals were acclimated for at least 5 days prior to tumor implantation with a tumor cell suspension.
HT1080 cells were maintained in vitro at 37° C. with 5% CO2 in Minimum Essential Medium Eagle (MEME) (Sigma-Aldrich, Co). Each animal was orthotopically implanted into gastroecnemius muscle by an intramuscular injection using a 26 G needle and a 1 cc syringe at 4-6 weeks of age, with 10×10^6 HT1080 cells, suspended in serum free medium, without antibiotics.
(§4) Treatment tolerability was assessed by monitoring body weight evolution, clinical signs of systemic toxicity, as well as evidences of local damage in the injection site.
In xenograft studies with HT1080 cell line: • Total diameter (tumor+leg) measurements were determined by using digital caliper (Fowler Sylvac, S235PAT).
(§5) Treatments producing >20% lethality and/or 20% net body weight loss were considered toxic.
The subject of data set [4] is A549 cells. Nature of the data set: cells. The following applies: for CC50: read-out: LC50; for IC (TGI): read-out: TGI. The method, boiled down: (§3)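 SRB read-out after 72 h exposure; fixed untreated plate served as time-zero reference. Compounds ranged 10 to 0.003 μg/mL over ten 2/5 dilutions, triplicate wells, 1% final DMSO, DMEM with 10% FBS. Values via NCI algorithm, four-parameter logistic regression.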

In data set [5] the test system is HT29 cells. As to the kind of experiment: cells. The note with it: for CC50: read-out: LC50; for IC (TGI): read-out: TGI. The method, boiled down:
as §3

Data set [6] concerns DU-145 tumors.
Description: Female athymic nu/nu mice (Harlan Laboratories Models, S. L. Barcelona, Spain or Envigo, Spain) were utilized for all experiments. Animal were housed in individually ventilated cages Sealsafe® Plus, Techniplast S.P.A.), up to ten per cage on a 12-hour light-dark cycle at 21-23° C. and 40-60% humidity. Mice were allowed free access to irradiated standard rodent diet (Tecklad 2914C) and sterilized water. Animals were acclimated for at least 5 days prior to tumor implantation with a tumor cell suspension.
Culture cells were passaged every 3 to 5 days upon reaching confluence Each male athymic mice was subcutaneously implanted (on the right flank using a 26 G needle and a 1 cc syringe) at 4-6 weeks of age with 5×10^6 DU-145 cells suspended in 0.05 mL of a solution consisting of 50% Matrigel® Matrix (Corning Incorporated Life Sciences) and 50% medium without serum or antibiotics.
as §4
In xenograft studies with other cell lines: • Tumor volume was calculated using the equation (a·b^2)/2, where a: length (longest diameter) and b: width (shortest diameter) were measured in mm by using digital caliper (Fowler Sylvac, S235PAT).
as §5
Tables and figures summarize the data obtained from complete experimental groups, i.e. those groups keeping the initial number of animals, n=8-10.
The test system of data set [7] is MDA-MB-231 cells. Nature of the data set: cells. The note with it: for CC50: read-out: LC50; for IC (TGI): read-out: TGI. An outline of the steps:
as §3

Data set [8] concerns PSN1 cells. As to the kind of experiment: cells. The following applies: for CC50: read-out: LC50; for IC (TGI): read-out: TGI. The method, boiled down:
as §3

Data set [9] deals with xenografted human tumor cell lines (breast, kidney and ovarian cancer). The note with it: xenografted human tumor cell lines in mice, such as breast; cited from earlier work.
Data set [10] deals with solid and non-solid tumour cell lines. The following applies: cited from earlier work.
[11] abbreviates: MDA-MB-231, 72 hours treatment, SRB.

Like-named read-outs stand apart in the source and are kept apart here. A value given as a limit tells only on which side of the number the result lay.

With `COc1c(C)cc2c(c1O)[C@@H]1[C@@H]3[C@@H]4SC[C@]5(N[C@@H](CO)Cc6c5[nH]c5ccccc65)C(=O)OC[C@@H](c5c6c(c(C)c(OC(C)=O)c54)OCO6)N3[C@@H](O)[C@H](C2)N1C` [Compound 4-R], the MTD at 14 days in data set [1] is 0.25 mg/kg. Further, in [2], the MTMD was 0.30 mg/kg. For the same molecule, in [3], the “Total diameter (tumor + leg)” value came to 18.0 mm. Moreover, the CC50 in data set [4] (Homo sapiens, A549, 72 h) was more than 127 nM; in data set [5] (Homo sapiens, HT-29, 72 h), more than 127 nM.
In data set [1], `COc1c(C)cc2c(c1O)[C@@H]1[C@@H]3[C@@H]4SC[C@]5(N[C@H](CO)Cc6c5[nH]c5ccccc65)C(=O)OC[C@@H](c5c6c(c(C)c(OC(C)=O)c54)OCO6)N3[C@@H](O)[C@H](C2)N1C` [Compound 4-S] registered an MTD at 14 days of 1 mg/kg. In addition, the MTMD in [2] is 1.25 mg/kg. Besides, the “Median Tumor Volume” value in [6] (Day 0, 4-S 1.00 mg/Kg iv Days 0, 7 and 14) turned out to be 126.2 mm^3; in data set [6] (Day 3, 4-S 1.00 mg/Kg iv Days 0, 7 and 14) it was 102.4 mm^3; in [6] (Day 5, 4-S 1.00 mg/Kg iv Days 0, 7 and 14), 119.5 mm^3; in [6] (Day 7, 4-S 1.00 mg/Kg iv Days 0, 7 and 14), 149.5 mm^3; in data set [6] (Day 10, 4-S 1.00 mg/Kg iv Days 0, 7 and 14), 216.8 mm^3; in data set [6] (Day 12, 4-S 1.00 mg/Kg iv Days 0, 7 and 14), 181.4 mm^3. In addition, the “Median Tumor Volume” value turned out to be 237.7 mm^3 in data set [6] (Day 14, 4-S 1.00 mg/Kg iv Days 0, 7 and 14); 204.4 mm^3 in [6] (Day 17, 4-S 1.00 mg/Kg iv Days 0, 7 and 14); 210.9 mm^3 in data set [6] (Day 19, 4-S 1.00 mg/Kg iv Days 0, 7 and 14); 300.0 mm^3 in data set [6] (Day 24, 4-S 1.00 mg/Kg iv Days 0, 7 and 14); 378.4 mm^3 in data set [6] (Day 26, 4-S 1.00 mg/Kg iv Days 0, 7 and 14); 587.0 mm^3 in [6] (Day 28, 4-S 1.00 mg/Kg iv Days 0, 7 and 14). In data set [6] (Day 31, 4-S 1.00 mg/Kg iv Days 0, 7 and 14), the “Median Tumor Volume” value is on record as 650.3 mm^3. The CC50 was more than 127 nM in [4] (Homo sapiens, A549, 72 h) and more than 127 nM in data set [5] (Homo sapiens, HT-29, 72 h).
Regarding `COc1ccc2[nH]c3c(c2c1)C[C@H](CO)N[C@]31CS[C@@H]2c3c(OC(C)=O)c(C)c4c(c3[C@H](COC1=O)N1[C@@H]2[C@H]2c3c(cc(C)c(OC)c3O)C[C@@H]([C@@H]1O)N2C)OCO4` [Compound 19-R], the MTD in data set [1] was found to be 0.15 mg/kg. In addition, in [2], the MTMD is on record as 0.15 mg/kg. In addition, the TGI in data set [7] (setting [11]) is 1.35E−09 Molar; in data set [4] (A549, 72 hours treatment, SRB), 3.56E−09 Molar; in data set [8] (PSN1, 72 hours treatment, SRB), 1.35E−09 Molar. Besides, the CC50 in data set [7] (setting [11]) is more than 123 nM; in data set [4] (A549, 72 hours treatment, SRB), more than 123 nM.
In turn, `COc1ccc2[nH]c3c(c2c1)C[C@@H](CO)N[C@]31CS[C@@H]2c3c(OC(C)=O)c(C)c4c(c3[C@H](COC1=O)N1[C@@H]2[C@H]2c3c(cc(C)c(OC)c3O)C[C@@H]([C@@H]1O)N2C)OCO4` [Compound 19-S] yielded an MTD in data set [1] of 0.5 mg/kg. The MTMD in [2] is 0.75 mg/kg. The GI50 in data set [7] (setting [11]) turned out to be 1.96 nM; in [4] (A549, 72 hours treatment, SRB), 3.07 nM; in data set [8] (PSN1, 72 hours treatment, SRB), 2.95 nM; in [5] (HT29, 72 hours treatment, SRB), 1.35 nM. The TGI turned out to be 3.31E−09 Molar in data set [7] (setting [11]); 3.31E−09 Molar in data set [4] (A549, 72 hours treatment, SRB); 3.19E−09 Molar in data set [8] (PSN1, 72 hours treatment, SRB); 1.60E−09 Molar in [5] (HT29, 72 hours treatment, SRB). In addition, the CC50 in data set [7] (setting [11]) is 11 nM; in data set [4] (A549, 72 hours treatment, SRB), more than 123 nM; in data set [8] (PSN1, 72 hours treatment, SRB), more than 123 nM; in data set [5] (HT29, 72 hours treatment, SRB), more than 123 nM.
For `COc1ccc2oc3c(c2c1)CCN[C@]31CS[C@@H]2c3c(OC(C)=O)c(C)c4c(c3[C@H](COC1=O)N1[C@@H]2[C@H]2c3c(cc(C)c(OC)c3O)C[C@@H]([C@@H]1O)N2C)OCO4` [Compound 35], the MTMD in [2] came to 0.25 mg/kg. The GI50 in [7] (Homo sapiens, MDA-MB-231, 72 h) was found to be 4.58 nM; in [4] (Homo sapiens, A549, 72 h), 8.14 nM; in [8] (Homo sapiens, PSN1, 72 h), 6.24 nM; in data set [5] (Homo sapiens, HT-29, 72 h), 7.89 nM. Besides, the CC50 was 16.5 nM in [7] (Homo sapiens, MDA-MB-231, 72 h); more than 127 nM in [4] (Homo sapiens, A549, 72 h); 14 nM in data set [8] (Homo sapiens, PSN1, 72 h); more than 127 nM in data set [5] (Homo sapiens, HT-29, 72 h). The IC (TGI) in data set [7] (Homo sapiens, MDA-MB-231, 72 h) was 8.27 nM; in data set [4] (Homo sapiens, A549, 72 h) it was 8.78 nM; in data set [8] (Homo sapiens, PSN1, 72 h) it was 9.03 nM; in data set [5] (Homo sapiens, HT-29, 72 h), 8.65 nM.
Consider `COc1ccc2[nH]c3c(c2c1)CCN[C@]31CS[C@@H]2c3c(OC(C)=O)c(C)c4c(c3[C@H](COC1=O)N1[C@@H]2[C@H]2c3c(cc(C)c(OC)c3O)C[C@@H]([C@@H]1O)N2C)OCO4` [PM01183], for which the in vivo activity result in data set [9] is given as “significant in vivo activity”. The in vitro activity entry in [10] was “highly potent in vitro activity”. The GI50 came to 2.29 nM in [7] (Homo sapiens, MDA-MB-231, 72 h); 3.31 nM in data set [4] (Homo sapiens, A549, 72 h); 3.19 nM in data set [8] (Homo sapiens, PSN1, 72 h); 1.91 nM in data set [5] (Homo sapiens, HT-29, 72 h). For the same molecule, the CC50 is 10.2 nM in data set [7] (Homo sapiens, MDA-MB-231, 72 h); more than 127 nM in [4] (Homo sapiens, A549, 72 h); 5.73 nM in data set [8] (Homo sapiens, PSN1, 72 h); more than 127 nM in data set [5] (Homo sapiens, HT-29, 72 h). Also, the IC (TGI) in [7] (Homo sapiens, MDA-MB-231, 72 h) is 3.95 nM; in [4] (Homo sapiens, A549, 72 h) it was 3.57 nM; in [8] (Homo sapiens, PSN1, 72 h), 3.95 nM; in data set [5] (Homo sapiens, HT-29, 72 h), 4.46 nM.

As a reminder, the MTD is the largest dose that counted as tolerated. The GI50 is the concentration that inhibits growth by half. Low readings indicate greater sensitivity of the cells, high ones lower sensitivity of the cells.
